Where no end group is shown, it is not given here.
Legend:
HdhQ111 cells = assay: Mitochondrial fragmentation assay; format: cell-based, mouse; details: compared to vehicle treatment group, at least 100 cells per group
Protocol: FIG. 8: Mitochondrial fragmentation assay. The percentage of HdhQ111 cells with fragmented mitochondria relative to the total number of cells was quantitated. At least 100 cells per group were counted.
FIG. 9: Mitochondrial fragmentation assay. Mitochondrial morphology was determined by staining cells with anti-Tom20 antibody. Nuclei: Hoechst 33342 stain. […] Scale Bars: 60 μm; 12 μm for inset.
Mitochondrial Fragmentation Methods: As preventing the fragmentation of the mitochondria is important for maintaining the health of striatal cells in the HD in vitro model, the PLP's abilities were tested in this regard.

R6/2 mice = assay: In vivo efficacy in R6/2 Huntington's disease mice, behavioral analysis, body weight, survival; design: species or system mouse; details: for open field horizontal activity / open field total distance / open field vertical activity: 13 weeks; for survival: over the saline control; for average percent of body weight gain: week 13
Source text: FIG. 31A-31F: For each of FIG. 31A-31F, data is shown reflecting the results of 3 separate studies (i.e., “Batch 1+2+3”) conducted under identical conditions; “veh” refers to the vehicle saline control. For each of FIG. 31A-31C at week 6, WT: n=15; WT+P1: n=15; R62 veh: n=22; R62+HV3-TAT: n=32; and R62+P1: n=16. For each of FIG. 31D-31F at week 6, WT: n=15; WT+P1: n=15; R62 veh: n=17; R62+HV3-TAT: n=30; and R62+P1: n=13. FIG. 31A depicts the average percent of body weight gain for mice subjected to each treatment. From top to bottom, the week 13 data points correspond to: WT+P1 (˜43%); WT (˜39%); R62+P1 (˜1%); R62+HV3-TAT (˜ […]); and R62 (˜-9%). FIG. 31B depicts the survival rate for each treatment group over time. 100% survival rate for WT veh and WT+P1. R62+P1 as compared to R62 veh: p-value=0.0454; R62+HV3-TAT as compared to R62 veh: p-value=0.0201. FIG. 31C depicts the average hindlimb clasping score for each treatment group at weeks 11, 12, and 13. For each week: R62 mice treated with vehicle (left), R62 treated with HV3-TAT (middle), and R62 treated with P1 (right). p-values in week 11: 0.0145 (top—R62 veh as compared to R62+P1), 0.0432 (middle—R62 veh as compared to R62+HV3-TAT), and 0.6051 (bottom—R62+HV3-TAT as compared to R62+P1); week 12: 0.0037 (top—R62 veh as compared to R62+P1), 0.0263 (middle—R62 veh as compared to R62+HV3-TAT), and 0.3957 (bottom—R62+HV3-TAT as compared to R62+P1); week 13: 0.0031 (top—R62 veh as compared to R62+P1), 0.0177 (middle—R62 veh as compared to R62+HV3-TAT), and 0.4938 (bottom—R62+HV3-TAT as compared to R62+P1). FIG. 31D depicts results from the open field tests representing the total distance traveled at final data collection. p-value for: WT veh as compared to R62 veh: <0.0001; WT+P1 as compared to R62 veh: <0.0001; R62 veh as compared to R62+HV3-TAT: 0.0021; R62 veh as compared to R62+P1: <0.0001; R62+HV3-TAT as compared to R62+P1: 0.1486. FIG. 31E depicts results from the horizontal activity tests. p-value for: WT veh as compared to R62 veh: <0.0001; WT+P1 as compared to R62 veh: <0.0001; R62 veh as compared to R62+HV3-TAT: 0.0262; R62 veh as compared to R62+P1: <0.0001; R62+HV3-TAT as compared to R62+P1: 0.0083. FIG. 31F depicts results from the vertical activity tests. P-value for: WT veh as compared to R62 veh: 0.0004; WT+P1 as compared to R62 veh: <0.0001; R62 veh as compared to R62+HV3-TAT: 0.2879; R62 veh as compared to R62+P1: 0.0375; R62+HV3-TAT as compared to R62+P1: 0.6222.
In vivo Efficacy Methods—Behavioral Analysis: All experiments in animals were conducted in accordance with protocols approved by the Institutional Animal Care and Use Committee of Northwestern University and were performed based on the National Institutes of Health Guide for the Care and Use of Laboratory Animals. HV3-TAT at its operating dose, saline (negative control), and P1 at a dose of […] (3 mg/kg/day with respect to peptide) were administered to Huntington's phenotype R6/2 (sometimes referred to herein as R62) mice and WT mice via Alzet osmotic pump from 6 to 13 weeks of age. The accepted HD phenotype is a decrease in motor coordination, general motility and body weight in male mice as they age from 5 to 13 weeks. A key phenotype of R6/2 mice is hindlimb clasping. Accordingly, hindlimb clasping was assessed with the tail suspension test weekly from the ages 7 to 13 weeks in R6/2 mice and WT littermates. Mice were suspended by the tail for 60 sec and the latency for the hindlimbs or all four paws to clasp was recorded using the following score system: clasping over 10 sec, score 3; 5-10 sec, score 2; 0-5 sec, score 1; 0 sec, score 0. The body weight and survival rate of HD mice and WT littermates were also recorded throughout the study period. For open field motor activity, gross locomotor activity was assessed in R6/2 mice and age-matched WT littermates at the ages of 13 weeks. […]

C57BL/6J mice = assay: Toxicity in WT C57BL/6J mice (CBC, serum chemistry, H&E pathology); format: in vivo, mouse; details: 3 mg/kg with respect to peptide, osmotic subcutaneous pump, 8 weeks, vs saline
Source text: FIG. 21: Optical micrographs for toxicity pathology analysis. H&E stained tissue; scale bar: 200 μm.
FIG. 22: Quantification of in vivo results from toxicity pathology analysis as depicted in FIG. 21. Left: pathology severity scoring of H&E stained tissue; Middle: red blood cell count; Right: white blood cell count.
FIG. 23A-23D: Quantification of in vivo results from toxicity pathology analysis as depicted in FIG. 21. FIG. 23A: represents hemoglobin count; FIG. 23B: total protein count; FIG. 23C: ALT (alanine transaminase) count; FIG. 23D: total bilirubin count.
Methods: To assess the toxicity of P1 at the administrable dose in healthy animals, as compared to HV3-TAT at its operating dose, and saline for the negative control, male C57BL/6J mice were assigned to 3 groups (n=3-4 per group) and administered via osmotic subcutaneous pump (Alzet) either HV3-TAT at 3 mg/kg, P1 at 3 mg/kg, all with respect to peptide concentration, or saline as a negative control for 8 weeks. Animals were checked weekly after drug administration for mortality. At sacrifice, blood was collected from each animal via cardiac puncture using a 25-gauge needle while under isoflurane, and then animals were sacrificed and major organs (brain, lung, heart, liver, spleen, spinal cord, and kidneys) collected, weighed, and stored in 10% buffered formalin followed by paraffin embedment.

Substance	fragmented mitochondria (HdhQ111 cells)	open field horizontal activity (R6/2 mice)	open field total distance (R6/2 mice)	open field vertical activity (R6/2 mice)	survival (R6/2 mice)	average percent of body weight gain (R6/2 mice) [%]	complete blood count (CBC) panel and serum chemical analysis (C57BL/6J mice)	pathology of H&E stained tissues (C57BL/6J mice)	hindlimb clasping (R6/2 mice; tail suspension test, weekly)
P1: PLP homopolymer having peptide side chains of SEQ ID: 1 (HVLVMSATRR), made by ROMP of norbornene peptide monomer M1 (also: side chains of polynorbornene homopolymer (PLP, ROMP of norbornene peptide monomer))	significantly fewer fragmented mitochondria	improved	improved	improved	significantly extending survival	~1	no significant difference between groups	No pathological differences	–
peptide sequence HVLVMCAT (HV3) coupled to the cell penetrating, HIV-derived TAT peptide [HV3-TAT, reference compound]	significantly fewer fragmented mitochondria	improved	improved	improved	significantly extending survival	~4	no significant difference between groups	No pathological differences	longer clasping time than P1 treated mice

Source: patent publication US20240110004A1 (Northwestern University, priority 2022, published 2024)
